Reference: BindingDB's records for doi:10.3109/14756366.2011.604851 (Shandong University, 2012)

Key:
Gag-Pol polyprotein [1] = target: T1, Gag-Pol polyprotein (Human immunodeficiency virus type 1 group M subtype B (isolate HXB2), UniProt P04585); assay: 3'-P Inhibitory Assay
Procedure: Cleavage of a dinucleotide from each 3'-end of viral cDNA. All biological assays were performed essentially as previously described [Dayam et al., J. Med. Chem., 51:1136-1144].

Gag-Pol polyprotein [2] = target: T1, Gag-Pol polyprotein; assay: ST Inhibitory Assay
Procedure: Insertion of two newly processed 3'-viral DNA ends into the host-cell chromosome. All biological assays were performed essentially as previously described [Dayam et al., J. Med. Chem., 51:1136-1144].

SMILES	IC50 (Gag-Pol polyprotein [1]) [µM]	IC50 (Gag-Pol polyprotein [2]) [µM]
O=C(/C=C/c1ccc(O)c(O)c1)Nc1ccc(S(=O)(=O)Nc2cccc(Br)c2)cc1 [(E)-3-(3,4-Dihydroxyphenyl)-N-(4-(3-Bromophenylsulfamoyl)phenyl)acrylamide (11f)]	49	22
Cc1cc(C)cc(NS(=O)(=O)c2ccc(NC(=O)c3cc(O)c(O)c(O)c3)cc2)c1 [N-(4-(3,5-Dimethylphenylsulfamoyl)phenyl)galloylamide (9k)]	8	2.5
